Assay [1] concerns the target BRD4 (His-Brd4(44-477)) (Homo sapiens (Human), UniProt O60885). Briefly: TR-FRET in-vitro binding assay for BRD4. The following applies: single determination or n ≧ 2 independent determinations, read-out: Biochemical IC50 BRD4. On the procedure:
(§1) TR-FRET In-Vitro Binding Assays for BRD2, BRD3, and BRD4:
(§2) All assays were performed in 384 well microtiter plates. Each assay plate contained 8-point serial dilutions for 40 test compounds, plus 16 high- and 16 low controls. Liquid handling and incubation steps were done on an Innovadyne Nanodrop Express equipped with a robotic arm (Thermo CatX, Perkin Elmer/Caliper Twister II) and an incubator (Liconic STX40, Thermo Cytomat 2C450). The assay plates were prepared by addition of 50 nl per well of compound solution in 90% DMSO HummingBird nanodispenser (Zinsser Analytic). […] Reactions were incubated at 30° C. for 35 minutes. […] After 35 minutes incubation at 30° C., plates were measured in a Perkin Elmer EnVision multilabel reader.
(§3) Preparation of Compound Dilutions
(§4) Test compounds were dissolved in DMSO (10 mM) and transferred into 1.4 mL flat bottom or V-shaped Matrix tubes carrying a unique 2D matrix. The stock solutions were stored at […] if not used immediately. For the test procedure the vials were defrosted and identified by a scanner whereby a working sheet was generated that guided the subsequent working steps.
(§5) Compound dilutions were made in 96 well plates. This format enabled the assay of maximally 40 individual test compounds at 8 concentrations (single points) including 4 reference compounds, if desired (known BET inhibitors from the prior art, for this and other assays of the type disclosed herein). The dilution protocol included the production of “pre-dilution plates”, “master plates” and “assay plates”.
(§6) Pre-Dilution Plates: 96 polypropylene well plates were used as pre-dilution plates. A total of 4 pre-dilution plates were prepared including 10 test compounds each on the plate positions A1-A10, one standard compound at A11 and one DMSO control at A12. All dilution steps were done on a HamiltonSTAR robot.
(§7) These plates were used directly for the assay which was performed in a total volume of 13.55 μL.
A general note: TR-FRET usually uses a lanthanide donor and a delayed reading to cut background.

Assay [2] has as its target BRD2 (His-Brd2(60-472)) (Homo sapiens (Human), UniProt P25440). As to the kind of experiment: TR-FRET in-vitro binding assay for BRD2. The following applies: single determination or n ≧ 2 independent determinations, read-out: Biochemical IC50 BRD2. On the procedure: as §1, §2, §3, §4, §5, §6, §7
Assay [3] addresses BRD3 (His-Brd3(20-477)) (Homo sapiens (Human), UniProt Q15059). As to the kind of experiment: TR-FRET in-vitro binding assay for BRD3. Particulars: single determination or n ≧ 2 independent determinations, read-out: Biochemical IC50 BRD3. On the procedure:
as §1, §2, §3, §4, §5, §6, §7

The test system of assay [4] is THP-1 cells. As to the kind of experiment: Cell growth inhibition assay (CellTiter-Glo), THP-1.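 For all read-outs here: viability read as cellular ATP luminescence after 4 days, 3-fold dilution series from 10 µM, DMSO vehicle-treated cells taken as 100%, cell-free medium wells as −100%.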 The following applies: for GI50: Homo sapiens, THP-1, read-out: THP-1 GI50; for THP-1 TGI: THP-1 cells, total growth inhibition, CellTiter-Glo.
The subject of assay [5] is K-562 cells. Briefly: Cell growth inhibition assay (CellTiter-Glo), K-562.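 For all read-outs here: cellular ATP measured by luminescence after 4 days of exposure, 3-fold dilution series from 10 µM, DMSO vehicle-treated cells define 100%, cell-free medium wells −100%.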 Particulars: for GI50: Homo sapiens, K562, read-out: K-562 GI50; for K-562 TGI: K-562 cells, total growth inhibition, CellTiter-Glo.
In assay [6] the test system is MV-4-11 cells. As to the kind of experiment: Cell growth inhibition assay (CellTiter-Glo), MV-4-11.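 For all read-outs here: cellular ATP luminescence after 4 days, 3-fold dilution series from 10 µM top dose, vehicle (0.1% DMSO) set to 100%, cell-free medium set to −100%, day 0 corrected.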 The following applies: for GI50: Homo sapiens, MV4-11, read-out: MV-4-11 GI50; for MV-4-11 TGI: MV-4-11 cells, total growth inhibition, CellTiter-Glo.
Assay [7] concerns the target CREBBP bromodomain (His-CREBBP(1081-1197)) (Homo sapiens (Human), UniProt Q92793). Briefly: AlphaScreen in-vitro binding assay for CREBBP. Particulars: single determination or n ≧ 2 independent determinations, read-out: Biochemical IC50 CREBBP. On the procedure:
AlphaScreen In-Vitro Binding Assay for CREBBP
In order to assess bromodomain selectivity, we set up a binding assay using the bromodomain encoded by the CREBBP gene. […] Reactions were incubated at 30° C. for 35 minutes. Subsequently 4.5 μl per well detection mix (50 mM HEPES, pH 7.5, 0.005% Tween20, 0.02% BSA, 150 mM NaCl, 45 μg/ml Ni-chelate acceptor beads, 45 μg/mIstreptavidin-donor beads) (Perkin Elmer)) were added. After 60 minutes incubation at room temperature, plates were measured in a Perkin Elmer EnVision multilabel reader. IC50 values were determined from percent inhibition values at different compound concentrations by non-linear regression analysis.
as §3, §4, §5, §6, §7
A general note: Bead proximity is the source of the signal in Alpha formats.

Bounds are passed on as bounds.

Chain of CREBBP bromodomain (His-CREBBP(1081-1197)) (Q92793 1081-1197): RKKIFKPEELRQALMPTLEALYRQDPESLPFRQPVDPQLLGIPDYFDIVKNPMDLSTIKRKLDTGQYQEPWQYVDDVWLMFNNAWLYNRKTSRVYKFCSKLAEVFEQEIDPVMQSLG
Chain of BRD3 (His-Brd3(20-477)) (Q15059 20-477): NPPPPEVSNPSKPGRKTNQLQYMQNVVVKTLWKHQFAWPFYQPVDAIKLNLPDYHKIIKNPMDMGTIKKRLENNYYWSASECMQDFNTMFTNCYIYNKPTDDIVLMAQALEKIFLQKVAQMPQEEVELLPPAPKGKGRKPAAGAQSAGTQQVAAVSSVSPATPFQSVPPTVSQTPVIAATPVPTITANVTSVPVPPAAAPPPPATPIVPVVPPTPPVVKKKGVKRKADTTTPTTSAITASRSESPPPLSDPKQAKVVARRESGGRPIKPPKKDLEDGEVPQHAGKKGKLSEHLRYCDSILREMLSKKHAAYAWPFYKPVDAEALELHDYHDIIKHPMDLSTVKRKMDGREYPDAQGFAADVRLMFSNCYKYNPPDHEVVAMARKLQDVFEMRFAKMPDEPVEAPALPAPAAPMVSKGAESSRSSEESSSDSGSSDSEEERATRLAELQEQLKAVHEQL
Chain of BRD2 (His-Brd2(60-472)) (P25440 60-472): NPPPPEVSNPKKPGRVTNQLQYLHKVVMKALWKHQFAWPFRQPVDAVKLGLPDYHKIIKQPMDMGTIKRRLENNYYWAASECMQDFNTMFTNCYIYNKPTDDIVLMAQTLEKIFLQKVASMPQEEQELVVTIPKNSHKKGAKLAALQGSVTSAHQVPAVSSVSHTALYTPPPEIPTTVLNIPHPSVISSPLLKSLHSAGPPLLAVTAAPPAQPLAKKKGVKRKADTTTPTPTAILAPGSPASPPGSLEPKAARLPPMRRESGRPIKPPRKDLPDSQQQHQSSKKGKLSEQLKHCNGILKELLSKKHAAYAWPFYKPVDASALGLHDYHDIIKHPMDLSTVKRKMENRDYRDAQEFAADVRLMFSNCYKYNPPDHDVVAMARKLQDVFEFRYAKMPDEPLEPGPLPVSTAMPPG

For `Cc1cc(N2C(=O)c3nc(-c4nccs4)n(C(C)C)c3C2c2ccc(Cl)cc2)cn(C)c1=O` (stereo not shown) [Example 23, 6-(4-chlorophenyl)-5-(1,5-dimethyl-6-oxo-1,6-dihydropyridin-3-yl)-1-isopropyl-2-(thiazol-2-yl)-5,6-dihydropyrrolo[3,4-d]imidazol-4(1H)-one], the IC50 in assay [1] stood at 52 nM; in assay [2], 55 nM; in assay [3], 68 nM. Also, the concentration for 50% growth inhibition (GI50) is 158 nM in assay [4], 381 nM in assay [5] and 87.5 nM in assay [6]. Also, the “THP-1 TGI” value in assay [4] turned out to be 311 nM. Moreover, in assay [5], the “K-562 TGI” value was above 10000 nM. In addition, the “MV-4-11 TGI” value in assay [6] was found to be 143 nM.

Consider `CC(C)n1c(-c2ccccn2)nc2c1C(c1ccc(Cl)cc1)N(c1ccc(=O)n(C)c1)C2=O` (stereo not shown) [Example 20, 6-(4-chlorophenyl)-1-isopropyl-5-(1-methyl-6-oxo-1,6-dihydropyridin-3-yl)-2-(Pyridin-2-yl)-5,6-dihydropyrrolo[3,4-d]imidazol-4(1H)-one], for which the concentration for half-maximal inhibition (IC50) in assay [1] was 630 nM; in assay [2] it was 710 nM; in assay [3] it was 610 nM; in assay [7], 24600 nM.

Regarding `COc1ncccc1-c1nc2c([nH]1)[C@@H](c1ccc(Cl)cc1)N(c1cc(C)c3nnc(C)n3c1)C2=O` [Example 142, (R)-6-(4-chlorophenyl)-5-(3,8-dimethyl-[1,2,4]triazolo[4,3-a]pyridin-6-yl)-2-(2-methoxypyridin-3-yl)-5,6-dihydropyrrolo[3,4-d]imidazol-4(1H)-one], the IC50 in assay [1] is 40 nM; in assay [2] it was 96 nM; in assay [3], 36 nM; in assay [7], 1750 nM.

As for `Cc1ncc(-c2nc3c(n2C(C)C)C(c2ccc(Cl)cc2)N(c2cc(C)c(=O)n(C)c2)C3=O)s1` (stereo not shown) [Example 29, 6-(4-chlorophenyl)-5-(1,5-dimethyl-6-oxo-1,6-dihydropyridin-3-yl)-1-isopropyl-2-(2-methylthiazol-5-yl)-5,6-dihydropyrrolo[3,4-d]imidazol-4(1H)-one], the IC50 in assay [1] stood at 110 nM; in assay [2], 81 nM; in assay [3] it was 100 nM; in assay [7], 800 nM.

For `CC(C)n1c(-c2ccnn2C)nc2c1C(c1ccc(Cl)cc1)N(c1ccc(=O)n(C)c1)C2=O` (stereo not shown) [Example 21, 6-(4-chlorophenyl)-1-isopropyl-2-(1-methyl-1H-pyrazol-5-yl)-5-(1-methyl-6-oxo-1,6-dihydropyridin-3-yl)-5,6-dihydropyrrolo[3,4-d]imidazol-4(1H)-one], the IC50 in assay [1] turned out to be 772 nM; in assay [2], 1100 nM; in assay [3] it was 840 nM; in assay [7], 34800 nM.

`CCn1c(C)nc2c1[C@@H](c1ccc(Cl)cc1)N(c1cc(C)c3nnn(C)c3c1)C2=O` [Example 120, (R)-6-(4-chlorophenyl)-5-(3,7-dimethyl-3H-benzo[d][1,2,3]triazol-5-yl)-1-ethyl-2-methyl-5,6-dihydropyrrolo[3,4-d]imidazol-4(1H)-one]: the IC50 in assay [1] turned out to be 20.5 nM; in assay [2] it was 35.5 nM; in assay [3], 29.5 nM; in assay [7] it was 5130 nM.

Consider `Cc1cc(N2C(=O)c3nc(C4CC4)n(C(C)(C)C)c3C2c2ccc(Cl)cc2)cn(C)c1=O` (stereo not shown) [Example 33, 1-(tert-butyl)-6-(4-chlorophenyl)-2-cyclopropyl-5-(1,5-dimethyl-6-oxo-1,6-dihydropyridin-3-yl)-5,6-dihydropyrrolo[3,4-d]imidazol-4(1H)-one], for which the IC50 is 100 nM in assay [1], 65 nM in assay [2], 66 nM in assay [3] and 510 nM in assay [7].

As to `COc1ncccc1-c1nc2c(n1C(C)C)C(c1ccc(Cl)cc1)N(c1cc(C)c3nnn(C)c3c1)C2=O` (racemic) [Example 77, 6-(4-chlorophenyl)-5-(1,4-dimethyl-1H-benzo[d][1,2,3]triazol-6-yl)-1-isopropyl-2-(2-methoxypyridin-3-yl)-5,6-dihydropyrrolo[3,4-d]imidazol-4(1H)-one], the figures for the IC50 in assay [1], in assay [2] and in assay [3] were below 24 nM, 52 nM and 39 nM, respectively. In addition, the GI50 in assay [4] was found to be 7.94 nM; in assay [5] it was 21.5 nM; in assay [6] it was 4.93 nM. The “THP-1 TGI” value in assay [4] came out at 21.7 nM. Also, the “K-562 TGI” value in assay [5] is above 10000 nM. For the same molecule, the “MV-4-11 TGI” value in assay [6] amounted to 9.36 nM.

Turning to `Cc1nc(C)c(-c2nc3c(n2C(C)C)C(c2ccc(Cl)cc2)N(c2cc(C)c(=O)n(C)c2)C3=O)s1` (stereo not shown) [Example 25, 6-(4-chlorophenyl)-5-(1,5-dimethyl-6-oxo-1,6-dihydropyridin-3-yl)-2-(2,4-dimethylthiazol-5-yl)-1-isopropyl-5,6-dihydropyrrolo[3,4-d]imidazol-4(1H)-one], the concentration for half-maximal inhibition (IC50) in assay [1] was 99 nM; in assay [2], 120 nM; in assay [3] it was 79 nM. Besides, the concentration for 50% growth inhibition (GI50) in assay [4] came to 118 nM; in assay [5], 528 nM; in assay [6] it was 65.7 nM. The “THP-1 TGI” value in assay [4] came to 209 nM. Besides, in assay [5], the “K-562 TGI” value is above 10000 nM. Also, the “MV-4-11 TGI” value in assay [6] was determined as 90.4 nM.

Take `CC(C)n1c(-c2ccn(C)n2)nc2c1C(c1ccc(Cl)cc1)N(c1ccc(=O)n(C)c1)C2=O` (stereo not shown) [Example 22, 6-(4-chlorophenyl)-1-isopropyl-2-(1-methyl-1H-pyrazol-3-yl)-5-(1-methyl-6-oxo-1,6-dihydropyridin-3-yl)-5,6-dihydropyrrolo[3,4-d]imidazol-4(1H)-one]: the 50% inhibitory concentration (IC50) is 495 nM in assay [1], 607 nM in assay [2], 603 nM in assay [3] and above 37000 nM in assay [7].

On to `Cc1cc(N2C(=O)c3nc(-c4cccnc4F)n(C)c3C2c2ccc(Cl)cc2)cn(C)c1=O` (stereo not shown) [Example 32, 6-(4-chlorophenyl)-5-(1,5-dimethyl-6-oxo-1,6-dihydropyridin-3-yl)-2-(2-fluoropyridin-3-yl)-1-methyl-5,6-dihydropyrrolo[3,4-d]imidazol-4(1H)-one], for which the figures for the IC50 in assay [1], in assay [2] and in assay [3] were 170 nM, 180 nM and 130 nM, respectively.

In the case of `Cc1cc(N2C(=O)c3nc(C4CCCC4)n(C(C)C)c3C2c2ccc(Cl)cc2)cn(C)c1=O` (stereo not shown) [Example 31, 6-(4-chlorophenyl)-2-cyclopentyl-5-(1,5-dimethyl-6-oxo-1,6-dihydropyridin-3-yl)-1-isopropyl-5,6-dihydropyrrolo[3,4-d]imidazol-4(1H)-one], the IC50 in assay [1] was 47 nM; in assay [2], 45 nM; in assay [3], 37 nM. The figures for the 50% growth inhibitory concentration (GI50) in assay [4], in assay [5] and in assay [6] were 79.4 nM, 349 nM and 36.4 nM, respectively. Also, the “THP-1 TGI” value in assay [4] turned out to be 125 nM. The “K-562 TGI” value in assay [5] was above 10000 nM. Besides, in assay [6], the “MV-4-11 TGI” value came to 59.9 nM.

Regarding `COc1ncccc1-c1nc2c(n1C(C)C)[C@@H](c1ccc(Cl)cc1)N(c1cc(C)c3nnn(C)c3c1)C2=O` [Example 112, (R)-6-(4-chlorophenyl)-5-(1,4-dimethyl-1H-benzo[d][1,2,3]triazol-6-yl)-1-isopropyl-2-(2-methoxypyridin-3-yl)-5,6-dihydropyrrolo[3,4-d]imidazol-4(1H)-one], the half-inhibitory concentration (IC50) in assay [1] was below 11 nM; in assay [2], 13 nM; in assay [3], below 11 nM. Further, the concentration for 50% growth inhibition (GI50) in assay [4] came out at 4.79 nM; in assay [5] it was 17.2 nM; in assay [6], 1.72 nM. For the same molecule, in assay [4], the “THP-1 TGI” value came out at 9.84 nM. Further, the “K-562 TGI” value in assay [5] was above 10000 nM. In addition, the “MV-4-11 TGI” value in assay [6] was 4.61 nM.

A word on the IC50: it is the concentration that gives 50% inhibition. As usually defined, the GI50 is the concentration at which growth is held to half of that of the control.

Values taken from patent US9890166B2, “Imidazopyrrolidine derivatives and their use in the treatment of disease” (NOVARTIS AG, priority 2013, dated 2018).
